In patent US20020137750A1, “Amidine derivatives which are inhibitors of nitric oxide synthase” (priority 1999, published 2002):

SMILES	melting point
N=C(Nc1ccc(OC2CCCC2)c(CN2CCC[C@@H]2CO)c1)c1cccs1 [Example 21, N-(4-(Cyclopentyloxy)-3{[(2R)-2-(Hydroxymethyl)Pyrrolidinyl]Methyl}Phenyl)-2-Thiophenecarboximidamide]	126 to 127 °C
CN(CCO)Cc1cc(NC(=N)c2cccs2)ccc1C1CCCC1 [Example 30, N-(4-Cyclopentyl-3-{[(2-Hydroxyethyl)(Methyl)Amino]Methyl}Phenyl)-2-Thiophenecarboximidamide]	116 to 118 °C
N=C(Nc1ccc(C2CCCC2)c(CN2CCC[C@H]2CO)c1)c1cccs1 [Example 31, N-(4-Cyclopentyl-3-{[(2S)-2-(Hydroxymethyl)Pyrrolidinyl]Methyl}Phenyl)-2-Thiophenecarboximidamide]	132 to 133 °C
